Assay results as given in ChEMBL document CHEMBL1126161, “3,4-Dihydroquinolin-2(1H)-ones as combined inhibitors of thromboxane A2 synthase and cAMP phosphodiesterase” (J Med Chem, 1992).

How the values were obtained:
Mus musculus [1] = test: Time course of protection against mortality in a pulmonary thromboembolism model in mice after -7hr at 10 mg/kg; type: functional
Rattus norvegicus [2] = test: Antihypertensive activity in conscious spontaneously hypertensive rat (SHR), percent change in heart rate (beats/min) after 1 hr at 1 mg/kg peroral dose; type: functional; settings: route oral
Rattus norvegicus [3] = test: Antihypertensive activity in conscious spontaneously hypertensive rat (SHR), percent change in Systolic blood pressure (SBP) at 3 mg/kg peroral dose after 8 hr; type: functional; settings: route oral
Rattus norvegicus [4] = test: Antihypertensive activity in conscious spontaneously hypertensive rat (SHR), percent change in Systolic blood pressure (SBP) at 1 mg/kg peroral dose after 12 hr; type: functional; settings: route oral
Rattus norvegicus [5] = test: Antihypertensive activity in conscious spontaneously hypertensive rat (SHR), percent change in heart rate (beats/min) after 8 hr at 3 mg/kg peroral dose; type: functional; settings: route oral
Rattus norvegicus [6] = test: Antihypertensive activity in conscious spontaneously hypertensive rat (SHR), percent change in Systolic blood pressure (SBP) at 0.3 mg/kg peroral dose after 4 hr; type: functional; settings: route oral
Rattus norvegicus [7] = test: Antihypertensive activity in conscious spontaneously hypertensive rat (SHR), percent change in heart rate (beats/min) after 1 hr at 10 mg/kg peroral dose; type: functional; settings: route oral
Homo sapiens [8] = species on record: Homo sapiens; test: Inhibition of [14C]arachidonic acid induced platelet aggregation at 500 uM (Control TXB2 = 14.9+/-2.5); type: functional
Rattus norvegicus [9] = test: Antihypertensive activity in conscious spontaneously hypertensive rat (SHR), percent change in heart rate (beats/min) after 2 hr at 3 mg/kg peroral dose; type: functional; settings: route oral
Homo sapiens [10] = species on record: Homo sapiens; test: Ratio of IC50(w/oPAM)/IC50(w/PAM); type: functional
Phosphodiesterase 3 = Phosphodiesterase 3 (Homo sapiens, UniProt Q14432+Q13370); test: Inhibition of human blood platelet c-AMP phosphodiesterase
Rattus norvegicus [11] = test: Antihypertensive activity in conscious spontaneously hypertensive rat (SHR), percent change in Systolic blood pressure (SBP) at 0.3 mg/kg peroral dose after 8 hr; type: functional; settings: route oral
Rattus norvegicus [12] = test: Antihypertensive activity in conscious spontaneously hypertensive rat (SHR), percent change in Systolic blood pressure (SBP) at 0.3 mg/kg peroral dose after 1 hr; type: functional; settings: route oral
Homo sapiens [13] = species on record: Homo sapiens; test: Inhibition of [14C]arachidonic acid induced platelet aggregation at 500 uM (Control 6-keto-PGF1-alpha = 1.45+/-0.6); type: functional
Rattus norvegicus [14] = test: Antihypertensive activity in conscious spontaneously hypertensive rat (SHR), percent change in heart rate (beats/min) after 8 hr at 0.3 mg/kg peroral dose; type: functional; settings: route oral
Mus musculus [15] = test: Protection against mortality in pulmonary thromboembolism model in mice at 10 mg/kg; type: functional
Rattus norvegicus [16] = test: Antihypertensive activity in conscious spontaneously hypertensive rat (SHR), percent change in heart rate (beats/min) after 4 hr at 1 mg/kg peroral dose; type: functional; settings: route oral
Rattus norvegicus [17] = test: Ex vivo inhibition of blood platelet aggregation in rats at 50 mg/kg peroral dose after 5 hr; type: functional; settings: route oral
Rattus norvegicus [18] = test: Antihypertensive activity in conscious spontaneously hypertensive rat (SHR), percent change in Systolic blood pressure (SBP) at 1 mg/kg peroral dose after 1 hr; type: functional; settings: route oral
[19] = molecular target: T1, Thromboxane-A synthase (Homo sapiens) (UniProt P24557); test: Effect of TXA2 synthase inhibitor (compound) on serum TXB2 level in rats at 50 mg/kg po, after 2 hr; type: functional, organism-based; set-up: dose 50 mg/kg; settings: Rattus norvegicus, target entry is the homologue from another species
T1 sequence (whole entry): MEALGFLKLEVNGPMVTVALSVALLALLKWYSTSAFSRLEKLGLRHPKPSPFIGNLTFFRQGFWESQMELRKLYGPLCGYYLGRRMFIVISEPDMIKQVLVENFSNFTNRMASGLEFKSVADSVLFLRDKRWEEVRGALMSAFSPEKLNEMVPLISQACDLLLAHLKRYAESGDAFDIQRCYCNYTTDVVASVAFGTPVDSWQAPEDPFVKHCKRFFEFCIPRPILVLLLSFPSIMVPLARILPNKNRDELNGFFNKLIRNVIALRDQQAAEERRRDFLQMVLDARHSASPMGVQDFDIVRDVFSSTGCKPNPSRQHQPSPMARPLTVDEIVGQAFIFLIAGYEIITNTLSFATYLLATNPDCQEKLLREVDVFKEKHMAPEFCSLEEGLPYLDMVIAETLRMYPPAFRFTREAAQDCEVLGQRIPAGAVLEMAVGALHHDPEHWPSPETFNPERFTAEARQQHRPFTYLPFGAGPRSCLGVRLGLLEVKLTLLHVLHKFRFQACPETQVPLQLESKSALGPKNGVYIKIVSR

Rattus norvegicus [20] = test: Antihypertensive activity in conscious spontaneously hypertensive rat (SHR), percent change in Systolic blood pressure (SBP) at 3 mg/kg peroral dose after 2 hr; type: functional; settings: route oral
Mus musculus [21] = test: Protection against mortality in pulmonary thromboembolism model in mice at 6 mg/kg; type: functional
Mus musculus [22] = test: Time course of protection against mortality in a pulmonary thromboembolism model in mice after -3 hr at 10 mg/kg; type: functional
Mus musculus [23] = test: Protection against mortality in pulmonary thromboembolism model in mice at 30 mg/kg; type: functional

O=C1CCc2cc(/C=C/n3ccnc3)ccc2N1
survival at 10 mg/kg (Mus musculus [1]): 0%
Change in heart rate (Rattus norvegicus [2]): 17%
Change in systolic BP (Rattus norvegicus [3]): -18%
Change in systolic BP (Rattus norvegicus [4]): -3%
Change in heart rate (Rattus norvegicus [5]): 21%
Change in systolic BP (Rattus norvegicus [6]): -1%
Change in heart rate (Rattus norvegicus [7]): 22%
inhibition at 500 µM (Homo sapiens [8]): 4.3%
Change in heart rate (Rattus norvegicus [9]): 10%
Ratio (Homo sapiens [10]): 4.7
IC50 (Phosphodiesterase 3): 6.4 µM
Change in systolic BP (Rattus norvegicus [11]): -5%
Change in systolic BP (Rattus norvegicus [12]): -5%
inhibition at 500 µM (Homo sapiens [13]): 21.1%
Change in heart rate (Rattus norvegicus [14]): -8%
survival at 10 mg/kg (Mus musculus [15]): 90%
Change in heart rate (Rattus norvegicus [16]): 7%
inhibition in vivo at 50 mg/kg (Rattus norvegicus [17]): 95.9%
Change in systolic BP (Rattus norvegicus [18]): -19%
inhibition [19]: 97%
Change in systolic BP (Rattus norvegicus [20]): -40%
survival at 6 mg/kg (Mus musculus [21]): 50%
survival at 10 mg/kg (Mus musculus [22]): 20%
survival at 30 mg/kg (Mus musculus [23]): 20%
